Reference: the NIST ThermoML archive (doi:10.1021/je060271a)
± gives the expanded uncertainty stated by the source.

Settings: 343.15 K, Liquid, Vibrating tube method

CCCCC(=O)OCC(COC(=O)CCCC)(COC(=O)CCCC)COC(=O)CCCC [pentaerythritol tetrapentanoate]
Settings	mass density [kg/m3]
18558 kPa	992.3 ± 1.2
18600 kPa	992.4 ± 1.2
18634 kPa	992.4 ± 1.2
18668 kPa	992.5 ± 1.2
18709 kPa	992.5 ± 1.2
18744 kPa	992.5 ± 1.2
18780 kPa	992.5 ± 1.2
18821 kPa	992.4 ± 1.2
18857 kPa	992.7 ± 1.2
18892 kPa	992.5 ± 1.2
18935 kPa	992.7 ± 1.2
18971 kPa	992.6 ± 1.2
19007 kPa	992.6 ± 1.2
19052 kPa	992.7 ± 1.2
19088 kPa	992.6 ± 1.2
19126 kPa	992.7 ± 1.2
19172 kPa	992.8 ± 1.2
19211 kPa	992.9 ± 1.2
19248 kPa	992.8 ± 1.2
19284 kPa	992.9 ± 1.2
19312 kPa	992.8 ± 1.2
19340 kPa	992.9 ± 1.2
19368 kPa	992.9 ± 1.2
19401 kPa	992.9 ± 1.2
19429 kPa	992.9 ± 1.2
19458 kPa	993 ± 1.2
19491 kPa	992.9 ± 1.2
19520 kPa	993.1 ± 1.2
19549 kPa	993.1 ± 1.2
19579 kPa	993 ± 1.2
19613 kPa	993 ± 1.2
19638 kPa	993.1 ± 1.2
19666 kPa	993.2 ± 1.2
19689 kPa	993.1 ± 1.2
19713 kPa	993 ± 1.2
19737 kPa	993.1 ± 1.2
19761 kPa	993.2 ± 1.2
19789 kPa	993.2 ± 1.2
19813 kPa	993.2 ± 1.2
19836 kPa	993.2 ± 1.2
19864 kPa	993.2 ± 1.2
19888 kPa	993.3 ± 1.2
19912 kPa	993.3 ± 1.2
19941 kPa	993.3 ± 1.2
19964 kPa	993.3 ± 1.2
19988 kPa	993.4 ± 1.2
20017 kPa	993.3 ± 1.2
20042 kPa	993.4 ± 1.2
20066 kPa	993.3 ± 1.2
20095 kPa	993.4 ± 1.2
20119 kPa	993.6 ± 1.2
20143 kPa	993.5 ± 1.2
20173 kPa	993.5 ± 1.2
20197 kPa	993.5 ± 1.2
20222 kPa	993.5 ± 1.2
20251 kPa	993.5 ± 1.2
20276 kPa	993.5 ± 1.2
20301 kPa	993.6 ± 1.2
20330 kPa	993.7 ± 1.2
20355 kPa	993.4 ± 1.2
20381 kPa	993.7 ± 1.2
20410 kPa	993.7 ± 1.2
20436 kPa	993.7 ± 1.2
20461 kPa	993.5 ± 1.2
20487 kPa	993.7 ± 1.2
20517 kPa	993.6 ± 1.2
20542 kPa	993.6 ± 1.2
20568 kPa	993.7 ± 1.2
20598 kPa	993.7 ± 1.2
20629 kPa	993.8 ± 1.2
20660 kPa	993.8 ± 1.2
20687 kPa	993.8 ± 1.2
20713 kPa	993.9 ± 1.2
20740 kPa	993.9 ± 1.2
20770 kPa	993.8 ± 1.2
20797 kPa	993.9 ± 1.2
20823 kPa	993.8 ± 1.2
20854 kPa	993.9 ± 1.2
20880 kPa	994 ± 1.2
20907 kPa	993.9 ± 1.2
